Results published in patent publication US10457709B2, “Antimicrobial peptides, their variants and uses” (priority 2015, dated 2019).
Converted amounts (≈) assume the structure as drawn. Square brackets hold non-standard residues; d marks the D form. Ends that are not written are not given here. Peptide text beside a SMILES is read from it.

How the values were obtained:
[1] = tested on: Acinetobacter baumannii clinical strains; assay type: cell-based; details: clinical strains
Method: (§1) Minimum inhibition concentrations (MICs) were determined against Escherichia coli (ATCC 25922), Staphylococcus aureus (ATCC 25923), Klebsiella pneumoniae (ATCC 10031) and Pseudomonas aeruginosa (ATCC 27853). Also clinical strains of E. coli, K. pneumoniae, E. cloacae, P. aeruginosa, Serratia marcescens, Proteus mirabilis, S. pneumoniae, Acinetobacter baumannii, A. johnsonii and S. aureus were used for MICs assays. Additionally, clinical strains of yeast including Candida albicans, C. glabrata, C. parapsilosis and C. quillermondiae were used. The susceptibility of these microorganisms to Chain peptides were determined using micro broth dilution assay. Colonies of the respective microorganism from Muller Hinton (MH) agar plates incubated overnight were suspended in MH broth media and final concentration of microorganism was adjusted to 5.0×10^5 cfu/ml. An aliquot of 10 μl of each Chain peptide, or gentamicin, tetracycline as reference antibiotics were added in differing concentrations along with 90 μl of bacterial suspension to 96 well polypropylene plates and incubated at 37° C. for 20 to 24 hours. Concentrations of Chain peptides and reference antibiotics ranged from 0.125 to 128 μg/ml and the MICs were recorded as the lowest concentration with no visual growth of bacteria. Similarly, antifungal MICs were tested in Potato dextrose broth.
(§2) Clinical strains of yeasts including Candida albicans, C. glabrata, C. parapsilosis and C. quillermondiae were also tested with the 12 Chain peptides. The minimum inhibitory concentration (MICs) varied between these peptides and are presented in Tables 4a, 4b, 4c and 5a, 5b, 5c. Peptides Chain 105, 201 and 308 are broad spectrum antimicrobials with MICs between 0.5-32 μg/ml against all the bacteria and yeasts tested, except Serratia marcescens and Proteus mirabilis, against which the MICs were between 64-128 μg/ml. Peptide Chain 306 has narrow spectrum activity against E. coli at 1 μg/ml and for the rest of the bacterial strains at >32 μg/ml (FIG. 10c).

[2] = tested on: Enterobacter cloacae clinical strains; assay type: cell-based; details: clinical strains
Method: as §1, §2

[3] = tested on: Proteus mirabilis clinical strains; assay type: cell-based; details: clinical strains
Method: as §1, §2

[4] = tested on: Serratia marcescens clinical strains; assay type: cell-based; details: clinical strains
Method: as §1, §2

[5] = tested on: Staphylococcus aureus clinical strains; assay type: cell-based; details: clinical strains
Method: as §1, §2

[6] = tested on: Streptococcus pneumoniae clinical strains; assay type: cell-based; details: clinical strains
Method: as §1, §2

[7] = tested on: Candida albicans clinical strains; assay: MIC, clinical yeast strains; assay type: cell-based; design: unit: μg/ml
Method: as §1, §2

[8] = tested on: C. glabrata clinical strains; assay: MIC, clinical yeast strains; assay type: cell-based, Candida glabrata; design: unit: µg/ml
Method: as §1, §2

[9] = tested on: C. parapsilosis clinical strains; assay: MIC, clinical yeast strains; assay type: cell-based, Candida parapsilosis; design: unit: µg/ml
Method: as §1, §2

[10] = tested on: C. quillermondiae clinical strains; assay: MIC, clinical yeast strains; assay type: cell-based, Candida quillermondiae; design: unit: μg/ml; details: C. quillermondiae clinical yeast strain 1
Method: as §1, §2

[11] = tested on: Acinetobacter johnsonii clinical strains; assay type: cell-based; details: clinical strain 1; D-form peptides; MH broth-cation adjusted, 0.02% BSA, 0.2% acetic acid
Method: as §1, §2

[12] = tested on: Escherichia coli clinical strains; assay type: cell-based; details: clinical strains
Method: as §1, §2

[13] = tested on: Klebsiella pneumoniae clinical strains; assay type: cell-based; details: clinical strains
Method: as §1, §2

[14] = tested on: Pseudomonas aeruginosa clinical strains; assay type: cell-based; details: clinical strains
Method: as §1, §2

[15] = tested on: all the bacteria and yeasts tested; assay type: cell-based
Method: as §1, §2

[16] = tested on: Escherichia coli (ATCC 25922); assay: microbe, parasite or virus in culture; assay type: cell-based; details: ATCC 25922
Method: as §1

[17] = tested on: Klebsiella pneumoniae (ATCC 10031); assay: microbe, parasite or virus in culture; assay type: cell-based; details: ATCC 10031
Method: as §1

[18] = tested on: Pseudomonas aeruginosa (ATCC 27853); assay: microbe, parasite or virus in culture; assay type: cell-based; details: ATCC 27853
Method: as §1

[19] = tested on: Staphylococcus aureus (ATCC 25923); assay: microbe, parasite or virus in culture; assay type: cell-based; details: ATCC 25923
Method: as §1

[20] = tested on: E. coli; details: ATCC 25922
Method: as §1

[21] = tested on: S. aureus; details: ATCC 25923
Method: as §1

[22] = tested on: S. aureus; assay: Antibacterial activity analysis of En-MAP1 protein; assay type: cell-based, Staphylococcus aureus
Method: Both folded and unfolded proteins were tested for antibacterial activity against S. aureus by pipetting 10 μg of protein on the S. aureus culture on an LB plate. The activity was also tested in folded and unfolded protein digested with trypsin in 0.01% acetic acid at concentrations of 30 and 60 μg/ml.
The gene En-MAP1 was then cloned into the expression plasmid pET23(b) to analyze whether the antibacterial activity was due to the protein itself. The resulting construct pET23(b)-FosS1A contained the En-MAP1 gene in-frame. When transformed into E. coli expression strain BL21 (DE3) pLyseS and BL21 (DE3) pRARE, a protein of approximately 63 kDa (predicted mass 63.3 kDa) was produced in the cell extracts of induced, but not in the uninduced cultures. The resulting protein includes the amino acid sequence […]- prior to the first amino acid of the protein sequence. The protein was expressed in both strains as inclusion bodies and they were purified and folded in a His-Trap column, resulting in about ˜1 mg of pure folded protein.

Molecule: CC[C@@H](C)[C@@H](NC(=O)[C@@H](CCSC)NC(=O)[C@@H](C)NC(=O)[C@@H](CCCNC(=N)N)NC(=O)[C@@H](Cc1c[nH]c2ccccc12)NC(=O)[C@@H](CCCCN)NC(=O)[C@H](N)CCCNC(=N)N)C(=O)N[C@H](CCCNC(=N)N)C(=O)N[C@H](CC(C)C)C(=O)N[C@H](Cc1c[nH]cn1)C(=O)N[C@H](C)C(=O)N[C@H](CCCCN)C(=O)N[C@H](Cc1c[nH]c2ccccc12)C(=O)N[C@H](CC(C)C)C(=O)N[C@H](CCCNC(=N)N)C(=O)N[C@H](CCCCN)C(=O)O [Chain105D] (H-[dR][dK][dW][dR][dA][dM][dI][dR][dL][dH][dA][dK][dW][dL][dR][dK]-OH)
- MIC, Acinetobacter baumannii strain 1 [1]: 4 µg/mL (≈ 1.86 µM)
- MIC, Acinetobacter baumannii strain 2 [1]: 4 µg/mL (≈ 1.86 µM)
- MIC, Acinetobacter baumannii strain 3 [1]: 4 µg/mL (≈ 1.86 µM)
- MIC, Acinetobacter baumannii strain 4 [1]: 2 µg/mL (≈ 0.93 µM)
- MIC, Acinetobacter baumannii strain 5 [1]: 4 µg/mL (≈ 1.86 µM)
- MIC, Enterobacter cloacae strain 1 [2]: 2 µg/mL (≈ 0.93 µM)
- MIC, Enterobacter cloacae strain 2 [2]: 2 µg/mL (≈ 0.93 µM)
- MIC, Enterobacter cloacae strain 3 [2]: 2 µg/mL (≈ 0.93 µM)
- MIC, Enterobacter cloacae strain 4 [2]: 2 µg/mL (≈ 0.93 µM)
- MIC, Enterobacter cloacae strain 5 [2]: 1 µg/mL (≈ 0.465 µM)
- MIC, Proteus mirabilis strain 1 [3]: >128 µg/mL
- MIC, Proteus mirabilis strain 2 [3]: 32 µg/mL (≈ 14.9 µM)
- MIC, Proteus mirabilis strain 3 [3]: 64 µg/mL (≈ 29.8 µM)
- MIC, Proteus mirabilis strain 4 [3]: >128 µg/mL
- MIC, Proteus mirabilis strain 5 [3]: >128 µg/mL
- MICs against Proteus mirabilis [3]: 64 to 128 µg/mL
- MIC, Serratia marcescens strain 1 [4]: 128 µg/mL (≈ 59.5 µM)
- MIC, Serratia marcescens strain 2 [4]: 128 µg/mL (≈ 59.5 µM)
- MIC, Serratia marcescens strain 3 [4]: 128 µg/mL (≈ 59.5 µM)
- MIC, Serratia marcescens strain 4 [4]: 128 µg/mL (≈ 59.5 µM)
- MIC, Serratia marcescens strain 5 [4]: 128 µg/mL (≈ 59.5 µM)
- MICs against Serratia marcescens [4]: 64 to 128 µg/mL
- MIC, Staphylococcus aureus strain 1 [5]: 2 µg/mL (≈ 0.93 µM)
- MIC, Staphylococcus aureus strain 2 [5]: 2 µg/mL (≈ 0.93 µM)
- MIC, Staphylococcus aureus strain 3 [5]: 2 µg/mL (≈ 0.93 µM)
- MIC, Staphylococcus aureus strain 4 [5]: 2 µg/mL (≈ 0.93 µM)
- MIC, Staphylococcus aureus strain 5 [5]: 2 µg/mL (≈ 0.93 µM)
- MIC, Streptococcus pneumoniae strain 1 [6]: 4 µg/mL (≈ 1.86 µM)
- MIC, Streptococcus pneumoniae strain 2 [6]: 2 µg/mL (≈ 0.93 µM)
- MIC, Streptococcus pneumoniae strain 3 [6]: 2 µg/mL (≈ 0.93 µM)
- MIC, Streptococcus pneumoniae strain 4 [6]: 4 µg/mL (≈ 1.86 µM)
- MIC, Streptococcus pneumoniae strain 5 [6]: 2 µg/mL (≈ 0.93 µM)
- Minimum inhibitory concentration ([7]; Candida albicans clinical yeast strain 1): 32
- Minimum inhibitory concentration ([7]; Candida albicans clinical yeast strain 2): 16
- Minimum inhibitory concentration ([7]; Candida albicans clinical yeast strain 3): 32
- Minimum inhibitory concentration ([7]; Candida albicans clinical yeast strain 4): 32
- Minimum inhibitory concentration ([7]; Candida albicans clinical yeast strain 5): 32
- Minimum inhibitory concentration ([8]; C. glabrata clinical yeast strain 1): 16
- Minimum inhibitory concentration ([8]; C. glabrata clinical yeast strain 2): 16
- Minimum inhibitory concentration ([8]; C. glabrata clinical yeast strain 3): 8
- Minimum inhibitory concentration ([8]; C. glabrata clinical yeast strain 4): 32
- Minimum inhibitory concentration ([9]; C. parapsilosis clinical yeast strain 1): 8
- Minimum inhibitory concentration ([9]; C. parapsilosis clinical yeast strain 2): 8
- Minimum inhibitory concentration ([9]; C. parapsilosis clinical yeast strain 3): 8
- Minimum inhibitory concentration ([9]; C. parapsilosis clinical yeast strain 4): 4
- Minimum inhibitory concentration [10]: 8
- MIC, Acinetobacter johnsonii strain 1 [11]: 4 µg/mL (≈ 1.86 µM)
- MIC, Escherichia coli strain 1 [12]: 1 µg/mL (≈ 0.465 µM)
- MIC, Escherichia coli strain 2 [12]: 4 µg/mL (≈ 1.86 µM)
- MIC, Escherichia coli strain 3 [12]: 1 µg/mL (≈ 0.465 µM)
- MIC, Escherichia coli strain 4 [12]: 1 µg/mL (≈ 0.465 µM)
- MIC, Escherichia coli strain 5 [12]: 2 µg/mL (≈ 0.93 µM)
- MIC, Klebsiella pneumoniae strain 1 [13]: 4 µg/mL (≈ 1.86 µM)
- MIC, Klebsiella pneumoniae strain 2 [13]: 2 µg/mL (≈ 0.93 µM)
- MIC, Klebsiella pneumoniae strain 3 [13]: 4 µg/mL (≈ 1.86 µM)
- MIC, Klebsiella pneumoniae strain 4 [13]: 4 µg/mL (≈ 1.86 µM)
- MIC, Klebsiella pneumoniae strain 5 [13]: 2 µg/mL (≈ 0.93 µM)
- MIC, Pseudomonas aeruginosa strain 1 [14]: 4 µg/mL (≈ 1.86 µM)
- MIC, Pseudomonas aeruginosa strain 2 [14]: 4 µg/mL (≈ 1.86 µM)
- MIC, Pseudomonas aeruginosa strain 3 [14]: 4 µg/mL (≈ 1.86 µM)
- MIC, Pseudomonas aeruginosa strain 4 [14]: 4 µg/mL (≈ 1.86 µM)
- MIC, Pseudomonas aeruginosa strain 5 [14]: 4 µg/mL (≈ 1.86 µM)
- MICs against all the bacteria and yeasts tested [15]: 0.5 to 32 µg/mL

Molecule: NRIVQQRTSSR [Chain200]
- Minimum inhibitory concentration, Escherichia coli (ATCC 25922) [16]: >128 µg/mL
- Minimum inhibitory concentration, Klebsiella pneumoniae (ATCC 10031) [17]: >128 µg/mL
- Minimum inhibitory concentration, Pseudomonas aeruginosa (ATCC 27853) [18]: >128 µg/mL
- Minimum inhibitory concentration, Staphylococcus aureus (ATCC 25923) [19]: >128 µg/mL
- Minimal inhibitory concentration (MIC), E. coli [20]: 95 µM
- Minimal inhibitory concentration (MIC), S. aureus [21]: 95 µM

B1: En-MAP1: protein of 549 amino acids from an endophyte of Empetrum nigrum, GenBank accession number KC466596 (protein, listed as Empetrum nigrum)
chain: MRLVAHPVPDAPLYALMIKACSMGIPQPNDNLWKPRNPLLAKEEKTSKRGRTAPDTERALDLFREMTLRYNIRPTAEVYTAIIAACVKRDDMYDKGFGLFKKMVELERNRMSSEGHDSTSFAPTRATYNALLRGCARNKDLLRARWILAEMLRTAQAKWQEFMEKSKKGEEGVQEWELLEVEEMRPDTNTMAFLFYTYASHTTSSKAVPETEGKKELEGKAEERASEVTSVSPVSEPPEPMDESKLVYSLPTSSQAILREVTSLLDRIKSDQGQQSNLLSSVQINSKLLNSYIAVLSAHCRSSQVVERISEVVVGTKENPKSLFEETGTSVNGYTCFTVIDACGMMEHSPDTYHLACEMWQRWLSLVENATFHRENPLKAKEIGLDSRTISDCWSAMIRLHAKYNQVDEAMKLVHEFARLYPPASLFNSLTFEPSSTSSSSLSPRKGVQEISPLFSSTSLTHSIRGRDISRIQNTMSQDPTLQFRAVQILHLRLVELETRPKDLAYLSWLLKSYEHQLQPKRPKSLQGDLFTSRQAAYNRIVQQRTSSR
- Antibacterial activity against S. aureus ([22]; expressed, folded protein): no activity was observed
- Antibacterial activity against S. aureus after trypsin digestion ([22]; folded full protein digested with trypsin, data not shown): antibacterial activity was observed
- Antibacterial activity against S. aureus after trypsin digestion ([22]; trypsin digest of the unfolded protein): No activity was detected
